In series [1] the target is T1, human IGF-IR (Homo sapiens, UniProt P08069).
T1 construct: expresses the amino acid region 950-1337 of the mature peptide cytoplasmic domain of the human IGF-IR; made in house; host or cells: baculovirus (Bac-to-Bac)
As to the kind of experiment: IGF-1R tyrosine kinase assay, GST-IGF-1R. It is filed as biochemical. Conditions: Table 5; read-out: IGF-1R, IC50 class. From the text: The inhibition of IGF-1R and Ins-R can be determined as follows: The baculovirus donor vector pfbgx3IGFIRcd is used to generate a recombinant baculovirus that expresses the amino acid region 950-1337 of the mature peptide cytoplasmic domain of the human IGF-IR. To generate the cDNA fragment encoding the amino acid region 919-1343 of the intra-cytoplasmic kinase domain of the human insulin receptor, pC5hInsR is used. The fragments of the human IGF-IR and Ins-R are cloned, expressed and small-scale purified as a factor Xa-cleavable glutathione-S-transferase (GST)-fusion protein using the Bac-to-Bac™ system (GIBCO BRL) of recombinant baculovirus generation. Virus containing media is collected from the transfected cell culture and used for infection to increase its titer. Virus containing media obtained after two rounds of infection is used for large-scale protein expression. Cell extracts are prepared and loaded onto a glutathione-Sepharose (Pharmacia) column. After washing, the GST-tagged proteins are then eluted with a glutathione-containing buffer. Purified protein is stored at −70° C. in elution buffer. Tyrosine protein kinase assays with purified GST-IGF-1R and GST-ins-R are carried in a final volume of 30 μl containing 20 mM Tris-HCl, pH 7.6, 10 mM MgCl2, 0.01 mM Na3VO4, 1% DMSO, 1 mM DTT, 3 μg/ml poly(Glu,Tyr) 4:1 and 10 μM ATP (γ-[^33P]-ATP 0.1 μCi). The assay is performed in 96-well plates at ambient temperature for 20 min and terminated by addition of 25 μl 0.05 M EDTA pH 7.0. An aliquot of 40 μl is spotted with a multichannel dispenser on Whatman P81 membranes mounted in a Millipore Microtiter filter manifold connected to a low vacuum source. After elimination of liquid, the membrane is transferred to a sequence of 4 washing baths containing 0.5% H3PO4 and one with EtOH (shaking incubation for 10 min each), dried, mounted onto a Hewlett Packard TopCount manifold added 10 μl Microscint® and counted. Compounds of formula (I) show up to 90% inhibition of Ins-R at 10,000 nM, preferably between 60-90% inhibition. The inhibition of Tek can be determined as follows: The procedure of the expression, purification and assay these kinases has been described. Fabbro et al., Pharmacol. Ther. 82(2-3) 293-301 (1999). In brief, the glutathione S-transferase (GST) gene from the pAcG1 vector (Pharmingen) is excised with EcoRV and EcoRI and inserted into the cloning site of the Fast-Bac baculoviral vector (GIBCO) creating a 5530 bp vector with N-terminal cloning sites derived from the pAcG1 fusion vector (FBG0). The C-terminal cloning site may be any cloning site (from the Fast-Bac vector) downstream of the N-terminal cloning site used. N-terminally GST-fused (pAcG1, Pharmingen) KDR, Flt-1, Flk-1, Tek and PDGFR-β kinase domains are obtained from ProQinase, Freiburg, Germany. Tek is recloned into the FBG1 vector by EcoRI excision and ligation into EcoRI digested FBG1 (FBG1-Tek). The coding sequences for the whole cytoplasmic domain of c-Kit (aa 544-976) and c-Fms (aa 538-972) are amplified by PCR from human uterus and from human bone marrow cDNA libraries (Clontech), respectively. The amplified DNA fragments are fused to GST by cloning them into FBG1 as BamHI-EcoRI insertions, to yield FBG1-c-Kit and FBG1-c-Fms. Tek is recloned into the FBG0 transfer vector by EcoRI excision and ligation into EcoRI digested FBG0 (FBG-Tie2/Tek). FGFR-1 and c-met kinase domains are obtained by PCR from human A431 cells. N-terminal primers contain an overhanging EcoRI site, while C-terminal primers contain a XhoI site to aid cloning into the transfer vectors. After digestion of both the PCR fragments and FBG0 the cleavage products are gel-purified and ligated together to form the kinase constructs (FBG-Met, FBG-FGFR-1).

For series [2], the target named is c-Src kinase (Homo sapiens, UniProt P12931). As to the kind of experiment: c-Src kinase inhibition. Format: biochemical. The following applies: Table 5; read-out: c-scr, IC50 class. The text has this:
An appropriate assay is described in Andrejauskas-Buchdunger et al., Cancer Res. 52, 5353-8 (1992).

These results are taken from patent US20090099167A1, “Organic compounds” (Novartis Institutes for Biomedical Research, priority 2004, published 2009).

Molecules are shown by their SMILES.

c-Src kinase, sequence (P12931 whole entry): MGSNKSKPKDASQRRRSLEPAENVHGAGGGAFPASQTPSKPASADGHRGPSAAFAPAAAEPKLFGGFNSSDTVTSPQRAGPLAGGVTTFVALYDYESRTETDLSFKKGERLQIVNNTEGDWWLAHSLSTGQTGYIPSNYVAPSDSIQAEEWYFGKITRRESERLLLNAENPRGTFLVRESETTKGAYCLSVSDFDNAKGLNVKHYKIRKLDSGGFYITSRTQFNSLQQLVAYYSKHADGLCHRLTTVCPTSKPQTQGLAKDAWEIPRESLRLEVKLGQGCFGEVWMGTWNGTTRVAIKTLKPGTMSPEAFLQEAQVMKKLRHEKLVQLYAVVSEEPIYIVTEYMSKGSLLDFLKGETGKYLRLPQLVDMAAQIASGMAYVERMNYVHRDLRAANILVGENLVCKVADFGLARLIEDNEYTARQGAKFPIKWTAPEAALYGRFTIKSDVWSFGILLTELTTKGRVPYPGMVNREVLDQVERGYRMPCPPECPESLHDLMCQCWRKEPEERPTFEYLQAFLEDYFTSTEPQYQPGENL
T1 sequence (P08069 980-1367): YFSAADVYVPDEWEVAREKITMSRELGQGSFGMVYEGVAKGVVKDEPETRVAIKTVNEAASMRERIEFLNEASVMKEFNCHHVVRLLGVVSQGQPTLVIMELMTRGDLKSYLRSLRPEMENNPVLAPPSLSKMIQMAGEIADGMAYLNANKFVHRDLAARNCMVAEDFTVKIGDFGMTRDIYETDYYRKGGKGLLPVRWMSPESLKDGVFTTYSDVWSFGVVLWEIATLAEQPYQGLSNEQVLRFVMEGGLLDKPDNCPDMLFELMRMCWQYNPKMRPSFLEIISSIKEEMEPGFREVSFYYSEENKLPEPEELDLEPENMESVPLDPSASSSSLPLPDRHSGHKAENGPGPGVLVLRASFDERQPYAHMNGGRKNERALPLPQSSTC

Regarding `Cc1nc2c(-c3cccc(N4C[C@@H](C)O[C@@H](C)C4)c3)cnn2c(N)c1-c1cccc(Cl)c1` [Example 89, 6-(3-Chloro-phenyl)-3-[3-((2R,6S)-2,6-dimethyl-morpholin-4-yl)-phenyl]-5-methyl-pyrazolo[1,5-a]pyrimidin-7-ylamine], the melting point fell in the range of 165 to 167 °C. The IC50 in series [1] was above 10 µM. For the same compound, in series [2], the IC50 was below 1 µM.
Taken in the same sequence, the figures for `Cc1nc2c(-c3cccc(N4CCN(CCO)CC4)c3)cnn2c(N)c1-c1cccc(Cl)c1` [Example 90, 2-(4-{3-[7-Amino-6-(3-chloro-phenyl)-5-methyl-pyrazolo[1,5-a]pyrimidin-3-yl]-phenyl}-piperazin-1-yl)-ethanol] were 108 to 116 °C, above 10 µM and below 1 µM.
Take `CN1CCN(c2cccc(-c3cnn4c(N)c(Cc5ccccc5)cnc34)c2)CC1` [Example 91, 6-Benzyl-3-[3-(4-methyl-piperazin-1-yl)-phenyl]-pyrazolo[1,5-a]pyrimidin-7-ylamine]: the melting point was in the range of 72 to 75 °C. Moreover, the 50% inhibitory concentration (IC50) in series [1] is above 10 µM. Besides, in series [2], the IC50 is above 10 µM.
In turn, `COc1ccc(-c2cnn3c(N)c(-c4cccc(Cl)c4)c(C)nc23)cc1OC` [Example 93, 6-(3-Chloro-phenyl)-3-(3,4-dimethoxy-phenyl)-5-methyl-pyrazolo[1,5-a]pyrimidin-7-ylamine] registered a melting point of 223 to 226 °C. The IC50 in series [1] was above 10 µM. Moreover, in series [2], the IC50 was below 1 µM.
Taken in the same sequence, the figures for `COc1ccc(-c2cnn3c(N)c(-c4ccc(F)c(Cl)c4)c(C)nc23)cc1OC` [Example 94, 6-(3-Chloro-4-fluoro-phenyl)-3-(3,4-dimethoxy-phenyl)-5-methyl-pyrazolo[1,5-a]pyrimidin-7-ylamine] were 235 to 238 °C, above 10 µM and below 1 µM.
Taken in the same sequence, the figures for `COc1ccc(-c2cnn3c(N)c(-c4ccc(F)c(Cl)c4)c(C)nc23)cc1` [Example 95, 6-(3-Chloro-4-fluoro-phenyl)-3-(4-methoxy-phenyl)-5-methyl-pyrazolo[1,5-a]pyrimidin-7-ylamine] were 224 to 227 °C, above 10 µM and 1 to 10 µM.
Taken in the same sequence, the figures for `COc1ccc(-c2cnn3c(N)c(-c4ccc(F)cc4)c(C)nc23)cc1` [Example 96, 6-(4-Fluoro-phenyl)-3-(4-methoxy-phenyl)-5-methyl-pyrazolo[1,5-a]pyrimidin-7-ylamine] were 243 to 244 °C, above 10 µM and below 1 µM.
Compound `Cc1nc2c(-c3cccc(N4CCN(CCO)CC4)c3)cnn2c(N)c1-c1ccc(F)cc1` [Example 97, 2-(4-{3-[7-Amino-6-(4-fluoro-phenyl)-5-methyl-pyrazolo[1,5-a]pyrimidin-3-yl]-phenyl}-piperazin-1-yl)-ethanol] returned a melting point of 209 to 212 °C. Besides, the IC50 in series [1] is above 10 µM. Besides, the half-inhibitory concentration (IC50) in series [2] was below 1 µM.
In turn, `Cc1nc2c(-c3cccc(N4CCN(C)CC4)c3)cnn2c(N)c1-c1ccc(F)c(F)c1` [Example 98, 6-(3,4-Difluoro-phenyl)-5-methyl-3-[3-(4-methyl-piperazin-1-yl)-phenyl]-pyrazolo[1,5-a]pyrimidin-7-ylamine] registered a melting point of 216 to 219 °C. Further, the IC50 in series [1] was above 10 µM. Further, the IC50 in series [2] was below 1 µM.
Turning to `COc1ccc(-c2cnn3c(N)c(-c4ccc(F)c(F)c4)c(C)nc23)cc1OC` [Example 99, 6-(3,4-Difluoro-phenyl)-3-(3,4-dimethoxy-phenyl)-5-methyl-pyrazolo[1,5-a]pyrimidin-7-ylamine], the melting point was in the range of 230 to 235 °C. Also, in series [1], the IC50 is above 10 µM. Further, in series [2], the IC50 was below 1 µM.
As to `Cc1nc2c(-c3cccc(N4CCN(CCO)CC4)c3)cnn2c(N)c1-c1ccc(F)c(Cl)c1` [Example 100, 2-(4-{3-[7-Amino-6-(3-chloro-4-fluoro-phenyl)-5-methyl-pyrazolo[1,5-a]pyrimidin-3-yl]-phenyl}-piperazin-1-yl)-ethanol], the melting point was 104 to 107 °C. Moreover, in series [1], the IC50 was above 10 µM. Besides, the IC50 in series [2] is below 1 µM.
Taken in the same sequence, the figures for `Cc1nc2c(-c3cccc(N4CCN(CCO)CC4)c3)cnn2c(N)c1-c1ccc(F)c(F)c1` [Example 101, 2-(4-{3-[7-Amino-6-(3,4-difluoro-phenyl)-5-methyl-pyrazolo[1,5-a]pyrimidin-3-yl]-phenyl}-piperazin-1-yl)-ethanol] were 172 to 174 °C, above 10 µM and below 1 µM.
Taken in the same sequence, the figures for `Cc1nc2c(-c3cccc(N4CCC(N5CCCC5)CC4)c3)cnn2c(N)c1-c1cccc(Cl)c1` [Example 102, 6-(3-Chloro-phenyl)-5-methyl-3-[3-(4-pyrrolidin-1-yl-piperidin-1-yl)-phenyl]-pyrazolo[1,5-a]pyrimidin-7-ylamine] were 188 to 193 °C, above 10 µM and below 1 µM.
For the compound `Cc1nc2c(-c3cccc(N4CCC(N5CCCC5)CC4)c3)cnn2c(N)c1-c1ccc(F)cc1` [Example 103, 6-(4-Fluoro-phenyl)-5-methyl-3-[3-(4-pyrrolidin-1-yl-piperidin-1-yl)-phenyl]-pyrazolo[1,5-a]pyrimidin-7-ylamine], the melting point was in the range of 244 to 249 °C. In addition, the IC50 in series [1] was above 10 µM. In series [2], the IC50 is below 1 µM.
